Test system: 857933-349-R-J2-PDC complex spheroids, viability
Assay: Anticancer human tumor 857933-349-R-J2-PDC patient-derived colon adenocarcinoma cell line growth inhibition [GQUAD]
Conditions: for IC50: curve of first compound; for viability, T/C: stronger effect = lower value
Description: DNA G-quadruplex Stabilizer Agents in Combinations in Complex Spheroids
A high-throughput screen of multi-cell type tumor spheroids was designed to identify active combinations of DNA G-quadruplex stabilizer agents and targeted small molecules. Complex spheroids include a stromal component modeled by human endothelial cells (HUVEC) and fibroblasts modeled by human mesenchymal stem cells (MSCs). The concentration ranges selected for each drug and investigational agent were based upon clinically achievable concentrations if the clinical Cmax of the agent was known.
Compounds. The drugs and investigational agents: pidnarulex (CX-5461; NSC782164), APTO-253 (NSC789042), BRACO-19 (NSC847499), peposertib (NSC802822), ceralasertib (NSC780249), elimusertib (NSC800525), camonsertib (NSC841442), AZD-1390 (NSC803789), olaparib (NSC753686), talazoparib (NSC767125), ART-558 (NSC835418), sotorasib (NSC818433), MRTX-1133 (NSC836407), SN-38 (NSC673596), topotecan (NSC609699), etoposide (NSC141540), doxorubicin (NSC123127), gemcitabine (NSC613327), 5-fluorouracil (NSC19893), paclitaxel (NSC125973), vemurafenib (NSC761431), panobinostat (NSC761190), R-306465 (JNJ-16241199; NSC773264), adavosertib (NSC754352), TP-3654 (NSC805149), carboplatin (NSC241240), KSQ-4279 (NSC840948), and staurosporine (NSC755774) were obtained from the National Cancer Institute (NCI) Developmental Therapeutics Program Chemical Repository (34). The FDA-approved anticancer drug set is available from the NCI Developmental Therapeutics Program. […] The stock solutions were prepared in dimethyl sulfoxide (DMSO, Sigma-Aldrich, St. Louis, MO, cat. D2650) at 800-fold the tested concentration and stored at -70 degrees C prior to their use. All drugs and investigational agents were tested over a range starting from a high concentration at or near the clinical Cmax and decreasing in half-log increments. If the clinical Cmax for an agent had not been determined, the highest concentration tested was 10 microM.
2.3 Cell Culture. All cells were maintained in an incubator at 37 degrees C and 5% CO2 with 95% humidity. The PDC lines were cultured according to standard operating procedures established by the NCI PDMR. All PDCs were thawed and cultured in Matrigel-coated flasks prepared with a working solution of 1X Ham's F-12 nutrient mix, without supplementation (Invitrogen, cat. 11765054), 100 U/mL penicillin-streptomycin (Invitrogen, cat. 15140122), and 2.5% Matrigel (Corning Inc., cat. 354248) for the first three passages. The 857933-349-R-J2-PDC line was cultured in 6C/Colon 1B media, which includes advanced DMEM/F-12 (Thermo Fisher Scientific, cat. 12634028), 10 mM HEPES (Thermo Fisher Scientific, cat. 15630080), 1X GlutaMAX supplement (Thermo Fisher Scientific, cat. 35050061), 0.1 mg/mL primocin (InvivoGen, cat. ant-pm-2), 10% defined fetal bovine serum, heat inactivated (HyClone Laboratories Inc., cat. SH30070.03HI), 50% L-WRN conditioned media (ATCC, cat. CRL-3276), 1.25 mM N-Acetyl-L-cysteine (Sigma-Aldrich, cat. A9165), 10 mM nicotinamide (Sigma-Aldrich, cat. N0636), 1X B-27 supplement (Thermo Fisher Scientific, cat. 17504044), 1X N-2 supplement (Thermo Fisher Scientific, cat. 17502048), 10 microM Y-27632 dihydrochloride (Tocris Bioscience, cat. 1254), and 50 ng/mL human EGF recombinant protein (Thermo Fisher Scientific, cat. PHG0311). The 485176-168-R4-J1-PDC line was cultured in Panc media, which includes all 6C/Colon 1B media components plus 100 ng/mL human FGF-10 (Thermo Fisher Scientific, cat. 100-26), 500 nM SB-431542 (Selleckchem, cat. S1067), and gastrin (Tocris, cat. 3006).
[…]

[1] = second compound 0.0316 µM, first compound 0.0316 µM
[2] = second compound 0.0316 µM, first compound 0.1 µM
[3] = second compound 0.0316 µM, first compound 0.316 µM
[4] = second compound 0.0316 µM, first compound 1 µM
[5] = second compound 0.0316 µM, first compound 3.16 µM
[6] = second compound 0.0316 µM, first compound 10 µM
[7] = second compound 0.1 µM, first compound 0.0316 µM
[8] = second compound 0.1 µM, first compound 0.1 µM
[9] = second compound 0.1 µM, first compound 0.316 µM
[10] = second compound 0.1 µM, first compound 1 µM
[11] = second compound 0.1 µM, first compound 3.16 µM
[12] = second compound 0.1 µM, first compound 10 µM
[13] = second compound 0.316 µM, first compound 0.0316 µM
[14] = second compound 0.316 µM, first compound 0.1 µM
[15] = second compound 0.316 µM, first compound 0.316 µM
[16] = second compound 0.316 µM, first compound 1 µM
[17] = second compound 0.316 µM, first compound 3.16 µM
[18] = second compound 0.316 µM, first compound 10 µM
[19] = second compound 1 µM, first compound 0.0316 µM
[20] = second compound 1 µM, first compound 0.1 µM
[21] = second compound 1 µM, first compound 0.316 µM
[22] = second compound 1 µM, first compound 1 µM
[23] = second compound 1 µM, first compound 3.16 µM
[24] = second compound 1 µM, first compound 10 µM
[25] = second compound 3.16 µM, first compound 0.0316 µM
[26] = second compound 3.16 µM, first compound 0.1 µM
[27] = second compound 3.16 µM, first compound 0.316 µM
[28] = second compound 3.16 µM, first compound 1 µM
[29] = second compound 3.16 µM, first compound 3.16 µM
[30] = second compound 3.16 µM, first compound 10 µM
[31] = second compound 10 µM, first compound 0.0316 µM
[32] = second compound 10 µM, first compound 0.1 µM
[33] = second compound 10 µM, first compound 0.316 µM
[34] = second compound 10 µM, first compound 1 µM
[35] = second compound 10 µM, first compound 3.16 µM
[36] = second compound 10 µM, first compound 10 µM
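Note: spheroids exposed to compounds for one week before readout.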
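Throughout, for viability, T/C: percent viability relative to vehicle DMSO wells taken as 100%.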

Work on COc1cc(C2c3cc4c(cc3C(OC3OC5COC(C)OC5C(O)C3O)C3COC(=O)C23)OCO4)cc(OC)c1O (centres undefined) + Cc1cnc(CNC(=O)c2c(=O)c3ccc(N4CCCN(C)CC4)nc3n3c2sc2ccccc23)cn1 yielded an IC50 (second compound 0.0316 µM) of 331 nM, an IC50 (second compound 0.1 µM) of 104 nM and an IC50 (second compound 0.316 µM) of under 31.6 nM. For the same molecule, the IC50 (second compound 1 µM) was under 31.6 nM, the IC50 (second compound 3.16 µM) was under 31.6 nM and the IC50 (second compound 10 µM) was under 31.6 nM. It also gave a viability, T/C [1] of 66.6%, a viability, T/C [2] of 52.2% and a viability, T/C [3] of 43.6%. The viability, T/C [4] was 47%, the viability, T/C [5] was 43.6% and the viability, T/C [6] was 22.9%. The viability, T/C [7] was 54.1%, the viability, T/C [8] was 49.4% and the viability, T/C [9] was 44.5%. The viability, T/C [10] was 38.2%, the viability, T/C [11] was 36.2% and the viability, T/C [12] was 18.4%. It also gave a viability, T/C [13] of 27.8%, a viability, T/C [14] of 31.1% and a viability, T/C [15] of 24.8%. It also gave a viability, T/C [16] of 22.8%, a viability, T/C [17] of 13.7% and a viability, T/C [18] of 6.56%. For the same molecule, the viability, T/C [19] was 5.71%, the viability, T/C [20] was 6.22% and the viability, T/C [21] was 5.39%. The viability, T/C [22] was 5.9%, the viability, T/C [23] was 4.83% and the viability, T/C [24] was 3.18%. It also gave a viability, T/C [25] of 3.86%, a viability, T/C [26] of 2.65% and a viability, T/C [27] of 2.29%. It also gave a viability, T/C [28] of 2.54%, a viability, T/C [29] of 2.32% and a viability, T/C [30] of 1.47%. It also gave a viability, T/C [31] of 1.65%, a viability, T/C [32] of 1.68% and a viability, T/C [33] of 1.55%. The viability, T/C [34] was 2.21%, the viability, T/C [35] was 0.74% and the viability, T/C [36] was 0.21%.
For Cc1cccc(N(C)C(=O)C2C(O)CCN2c2nc(C)cc(C(F)(F)F)c2C#N)c1 (centres undefined) + Cc1cnc(CNC(=O)c2c(=O)c3ccc(N4CCCN(C)CC4)nc3n3c2sc2ccccc23)cn1, the IC50 (second compound 0.0316 µM) was over 10000 nM, the IC50 (second compound 0.1 µM) was over 10000 nM and the IC50 (second compound 0.316 µM) was under 31.6 nM. It also gave an IC50 (second compound 1 µM) of under 31.6 nM, an IC50 (second compound 3.16 µM) of under 31.6 nM and an IC50 (second compound 10 µM) of under 31.6 nM. It also gave a viability, T/C [1] of 92%, a viability, T/C [2] of 88.2% and a viability, T/C [3] of 94.4%. For the same molecule, the viability, T/C [4] was 82.3%, the viability, T/C [5] was 95.1% and the viability, T/C [6] was 77.6%. It also gave a viability, T/C [7] of 70.8%, a viability, T/C [8] of 73.3% and a viability, T/C [9] of 62.9%. It also gave a viability, T/C [10] of 58.8%, a viability, T/C [11] of 74.5% and a viability, T/C [12] of 64.1%. It also gave a viability, T/C [13] of 24.6%, a viability, T/C [14] of 29.8% and a viability, T/C [15] of 27.1%. For the same molecule, the viability, T/C [16] was 23.4%, the viability, T/C [17] was 24.2% and the viability, T/C [18] was 22.7%. For the same molecule, the viability, T/C [19] was 4.6%, the viability, T/C [20] was 7.14% and the viability, T/C [21] was 5.51%. For the same molecule, the viability, T/C [22] was 4.02%, the viability, T/C [23] was 4.11% and the viability, T/C [24] was 3.8%. It also gave a viability, T/C [25] of 2.72%, a viability, T/C [26] of 2.17% and a viability, T/C [27] of 1.95%. It also gave a viability, T/C [28] of 2.02%, a viability, T/C [29] of 2.19% and a viability, T/C [30] of 1.89%. The viability, T/C [31] was 2.6%, the viability, T/C [32] was 2.28% and the viability, T/C [33] was 2.23%. It also gave a viability, T/C [34] of 1.9%, a viability, T/C [35] of 1.89% and a viability, T/C [36] of 0.69%.

Source: PubChem BioAssay AID2060491 (Molecular Pharmacology Branch, DTP, NCI, 2025)
